Results reported in patent US8895004B2 (priority 2007, dated 2014).
Read-outs that look alike come from different tables or passages of the source.

Key:
[1] = tested on: cells predominantly expressing presynaptic N-type calcium channels; type: cell-based, rat
hippocampal slice = assay: Spontaneous synaptic currents in acute hippocampal slice, CA1 pyramidal cells; type: cell-based; conditions: mouse slice
Protocol: 400 μm thick slices were prepared from freshly dissected hippocampi of the mouse using a method known per se (Dingledine R. Brain Slices. New York: Plenum Press, 1983).

[2] = tested on: cultured hippocampal neurons; type: cell-based, rat
GABAA receptors = type: cell-based, rat
[3] = molecular target: T1, P/Q-type calcium channels (Rattus norvegicus, UniProt P54282); type: cell-based
T1 construct: Typical P/Q channel-mediated currents could be reliably elicited in somatic whole-cell recordings under our culture conditions; endogenous in cells; host or cells: cultured hippocampal neurons

L-type calcium currents = type: cell-based, rat
[4] = tested on: cultured hippocampal neurons; assay: sPSC frequency at 1 mM and 4 mM extracellular Ca2+ after Aβ(1-42) globulomer; type: cell-based
Protocol: Spontaneous synaptic activity was measured in cultured hippocampal neurons using whole-cell voltage clamp techniques (Vhold=−70 mV). Under the ionic conditions used (ECl˜−10 mV) all synaptic events appeared as inward currents.
Currents recorded prior to the addition of the globulomer served as control describing basal synaptic transmission. Currents recorded in the interval immediately after application were analysed with respect to the control data. Afterwards, extracellular Ca^2+ was elevated from 1 mM to 4 mM (leaving the concentration of globulomer unchanged). Currents in the following 5 min recording interval were again analysed with respect to control data.

[5] = tested on: cultured hippocampal neurons
[6] = tested on: hippocampal slice cultures; assay: Evoked synaptic transmission in hippocampal slice cultures after overnight incubation; conditions: globulomer approx. 1 μM monomer
[7] = globulomer, after elevation of Ca2+ to 4 mM

T1 sequence (Q8CFG6 19-1157): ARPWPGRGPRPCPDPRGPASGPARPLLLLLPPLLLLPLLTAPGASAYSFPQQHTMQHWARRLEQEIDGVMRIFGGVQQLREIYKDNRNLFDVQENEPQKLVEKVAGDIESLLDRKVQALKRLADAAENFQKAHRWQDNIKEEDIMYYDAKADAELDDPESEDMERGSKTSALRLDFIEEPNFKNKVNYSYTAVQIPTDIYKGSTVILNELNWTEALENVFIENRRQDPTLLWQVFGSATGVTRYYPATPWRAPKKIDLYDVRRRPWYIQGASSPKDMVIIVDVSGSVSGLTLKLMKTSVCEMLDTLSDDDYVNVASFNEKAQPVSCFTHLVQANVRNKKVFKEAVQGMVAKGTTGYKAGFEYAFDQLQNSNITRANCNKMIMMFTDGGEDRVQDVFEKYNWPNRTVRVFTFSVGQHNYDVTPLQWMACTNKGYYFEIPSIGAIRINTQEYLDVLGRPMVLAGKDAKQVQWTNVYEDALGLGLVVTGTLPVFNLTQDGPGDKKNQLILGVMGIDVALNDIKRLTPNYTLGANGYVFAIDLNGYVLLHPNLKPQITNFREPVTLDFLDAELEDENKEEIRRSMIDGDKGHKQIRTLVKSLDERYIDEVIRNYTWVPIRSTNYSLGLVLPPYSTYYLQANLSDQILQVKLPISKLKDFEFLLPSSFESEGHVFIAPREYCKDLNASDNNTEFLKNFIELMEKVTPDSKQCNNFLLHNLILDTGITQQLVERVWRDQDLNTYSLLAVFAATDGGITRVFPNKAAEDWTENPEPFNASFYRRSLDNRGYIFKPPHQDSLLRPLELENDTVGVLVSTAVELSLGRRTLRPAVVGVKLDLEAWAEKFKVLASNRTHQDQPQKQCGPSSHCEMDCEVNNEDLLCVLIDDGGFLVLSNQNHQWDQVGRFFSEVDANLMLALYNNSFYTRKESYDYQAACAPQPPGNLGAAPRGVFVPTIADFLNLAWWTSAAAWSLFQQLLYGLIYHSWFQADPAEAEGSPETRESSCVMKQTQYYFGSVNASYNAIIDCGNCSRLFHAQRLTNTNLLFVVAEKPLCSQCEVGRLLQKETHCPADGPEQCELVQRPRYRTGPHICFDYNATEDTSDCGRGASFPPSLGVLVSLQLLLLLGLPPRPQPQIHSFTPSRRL
T1 sequence (P54282 whole entry): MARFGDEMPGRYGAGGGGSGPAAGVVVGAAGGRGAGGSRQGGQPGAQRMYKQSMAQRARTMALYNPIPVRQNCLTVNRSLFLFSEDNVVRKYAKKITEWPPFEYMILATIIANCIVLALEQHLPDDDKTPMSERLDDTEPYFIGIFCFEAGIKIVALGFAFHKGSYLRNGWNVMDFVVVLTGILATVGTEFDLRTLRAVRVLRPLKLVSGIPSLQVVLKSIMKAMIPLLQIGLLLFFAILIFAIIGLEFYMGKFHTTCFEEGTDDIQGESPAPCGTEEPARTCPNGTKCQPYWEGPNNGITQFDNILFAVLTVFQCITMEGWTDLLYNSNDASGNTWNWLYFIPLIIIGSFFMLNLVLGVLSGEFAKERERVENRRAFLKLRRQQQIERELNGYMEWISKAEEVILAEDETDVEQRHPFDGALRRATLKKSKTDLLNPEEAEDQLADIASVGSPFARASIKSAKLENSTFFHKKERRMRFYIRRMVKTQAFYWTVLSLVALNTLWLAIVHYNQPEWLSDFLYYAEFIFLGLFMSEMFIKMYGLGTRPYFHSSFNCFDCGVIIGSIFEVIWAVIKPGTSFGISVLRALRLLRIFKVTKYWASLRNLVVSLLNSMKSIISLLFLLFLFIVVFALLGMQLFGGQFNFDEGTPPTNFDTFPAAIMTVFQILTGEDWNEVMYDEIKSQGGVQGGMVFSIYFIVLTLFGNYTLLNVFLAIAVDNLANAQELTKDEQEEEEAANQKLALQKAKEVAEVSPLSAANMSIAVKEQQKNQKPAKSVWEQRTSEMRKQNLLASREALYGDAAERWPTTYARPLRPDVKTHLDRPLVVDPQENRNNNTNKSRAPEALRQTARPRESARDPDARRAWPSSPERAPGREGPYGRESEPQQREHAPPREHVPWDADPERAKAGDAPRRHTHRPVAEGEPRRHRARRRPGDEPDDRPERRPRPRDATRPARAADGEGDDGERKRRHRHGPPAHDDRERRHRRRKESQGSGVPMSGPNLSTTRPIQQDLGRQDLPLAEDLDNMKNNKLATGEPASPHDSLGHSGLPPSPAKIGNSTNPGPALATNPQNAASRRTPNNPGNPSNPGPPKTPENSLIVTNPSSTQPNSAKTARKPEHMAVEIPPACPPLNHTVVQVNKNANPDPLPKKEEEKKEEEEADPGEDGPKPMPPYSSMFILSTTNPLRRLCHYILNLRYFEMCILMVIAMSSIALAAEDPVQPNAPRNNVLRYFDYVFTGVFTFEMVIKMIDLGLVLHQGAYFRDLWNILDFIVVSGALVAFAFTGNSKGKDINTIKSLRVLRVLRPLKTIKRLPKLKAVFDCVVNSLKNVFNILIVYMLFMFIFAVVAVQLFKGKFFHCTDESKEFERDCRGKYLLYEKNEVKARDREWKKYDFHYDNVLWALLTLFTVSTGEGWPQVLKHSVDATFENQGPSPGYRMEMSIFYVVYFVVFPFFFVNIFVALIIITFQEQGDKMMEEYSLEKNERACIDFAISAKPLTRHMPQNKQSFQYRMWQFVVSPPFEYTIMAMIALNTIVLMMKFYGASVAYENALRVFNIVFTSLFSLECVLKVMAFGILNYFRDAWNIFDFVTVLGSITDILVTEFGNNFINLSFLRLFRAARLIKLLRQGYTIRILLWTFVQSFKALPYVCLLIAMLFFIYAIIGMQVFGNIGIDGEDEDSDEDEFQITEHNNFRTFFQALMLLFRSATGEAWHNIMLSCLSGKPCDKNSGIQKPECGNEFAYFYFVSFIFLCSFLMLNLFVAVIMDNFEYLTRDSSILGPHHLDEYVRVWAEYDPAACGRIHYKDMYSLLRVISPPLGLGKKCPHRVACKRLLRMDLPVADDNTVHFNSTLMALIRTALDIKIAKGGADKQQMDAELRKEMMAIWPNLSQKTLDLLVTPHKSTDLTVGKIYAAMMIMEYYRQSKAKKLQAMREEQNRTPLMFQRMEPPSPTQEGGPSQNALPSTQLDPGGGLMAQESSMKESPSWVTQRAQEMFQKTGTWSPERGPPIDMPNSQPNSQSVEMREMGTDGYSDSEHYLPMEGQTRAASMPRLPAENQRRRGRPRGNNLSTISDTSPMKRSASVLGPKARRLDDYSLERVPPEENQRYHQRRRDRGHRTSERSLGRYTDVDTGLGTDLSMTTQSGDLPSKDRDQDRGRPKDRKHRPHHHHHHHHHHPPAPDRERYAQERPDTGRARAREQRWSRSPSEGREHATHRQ
T1 sequence (P54283 whole entry, further chain): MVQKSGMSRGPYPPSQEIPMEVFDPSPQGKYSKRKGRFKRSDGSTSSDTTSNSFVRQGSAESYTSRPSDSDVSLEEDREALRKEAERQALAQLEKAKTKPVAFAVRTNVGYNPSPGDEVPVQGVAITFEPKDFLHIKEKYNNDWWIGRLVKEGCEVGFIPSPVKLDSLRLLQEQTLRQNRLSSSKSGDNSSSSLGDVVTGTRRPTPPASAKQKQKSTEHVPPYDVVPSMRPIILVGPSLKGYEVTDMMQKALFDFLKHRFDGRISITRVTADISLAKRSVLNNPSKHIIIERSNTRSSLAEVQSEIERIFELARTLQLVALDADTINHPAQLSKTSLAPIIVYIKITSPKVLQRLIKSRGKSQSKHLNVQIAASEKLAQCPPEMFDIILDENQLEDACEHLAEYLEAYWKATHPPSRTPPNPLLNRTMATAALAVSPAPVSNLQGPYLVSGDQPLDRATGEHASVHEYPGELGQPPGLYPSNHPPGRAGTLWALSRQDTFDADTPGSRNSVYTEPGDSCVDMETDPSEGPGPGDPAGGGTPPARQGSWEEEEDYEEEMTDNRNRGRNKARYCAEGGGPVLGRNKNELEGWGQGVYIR

Substance: ω-agatoxin IVA (KKKCIAKDYGRCKWGGTPCCRGRGCICSIMGTNCECKPRLIMEGLGLA)
- spontaneous synaptic activity (frequency and amplitude) in N-dominated cells [1]: does not impair spontaneous synaptic activity

Substance: Aβ(1-42) globulomer: soluble, globular, non-covalent association of Aβ(1-42) peptides, apparent molecular weight 38/48 kDa, obtained as in Example 6b of WO2004/067561
- spontaneous synaptic activity (frequency and amplitude) in N-dominated cells [1]: does not impair spontaneous synaptic activity
- inhibition mechanism in hippocampal slice (hippocampal slice): also valid in situ
- amplitude of the AP (baseline to peak) [2]: 110.9±16.7 mV
- half-width time [2]: 4.0 ± 2.9 ms
- input resistance [2]: 131.6±13.7 MΩ
- maximal rate of repolarization [2]: 47.4±19.3 V/s
- maximal rate of rise [2]: 84.2±50.0 V/s
- threshold for firing [2]: −24.2±9.8 mV
- GABA-induced inward currents (GABAA receptors): unaltered
- amplitude of P/Q-type currents [3]: 62±7 % of control
- maximal conductance (gmax) [3]: 27.2±3.2 nS
- reversibility of P/Q-type current reduction [3]: partially reversible
- slope Vc of steady-state activation [3]: −10.8±0.5 mV
- slope Vc of steady-state inactivation [3]: −12.6±1.1 mV
- steady-state activation Vh [3]: −17.3±1.3 mV
- voltage at half-maximal inactivation [3]: 32.4±1.2 mV
- L-type calcium current amplitude (L-type calcium currents): 573.0±225.6 pA
- median amplitude of sPSCs ([4]; 1 mM Ca2+, globulomer): 97±5%
- sPSC frequency ([4]; 1 mM Ca2+, globulomer approx. 1 μM monomer): 63±7 % of control
- median amplitude of sPSCs [4, 7]: 98±6%
- sPSC frequency [4, 7]: 77±13 % of control
- amplitude of mEPSCs [5]: 96±3 % of control
- amplitude of spontaneous EPSCs [5]: 79±4 % of control
- amplitude of spontaneous EPSCs during washout [5]: 96±6%
- amplitude of spontaneous IPSCs after withdrawal [5]: 94±2%
- amplitude of synaptic currents after pre-incubation with ω-Agatoxin IVA [5]: 102±7
- frequency of mIPSCs [5]: 52±10 % of control
- frequency of mIPSCs after washout [5]: 68±12 % of control
- frequency of mPSCs [5]: 56±9 % of control
- frequency of mPSCs after washout [5]: 77±7.6 % of control
- frequency of miniature EPSCs [5]: 57±9 % of control
- frequency of miniature EPSCs after wash-out [5]: 54±8%
- frequency of sPSCs after washout [5]: 61±16%
- frequency of spontaneous EPSCs [5]: 14±4 % of control
- frequency of spontaneous EPSCs during washout [5]: 52±19 % of control
- frequency of spontaneously occurring IPSCs [5]: 64±5 % of control
- frequency of synaptic currents after pre-incubation with ω-Agatoxin IVA [5]: 108±15%
- mIPSC amplitude [5]: 81±6 % of control
- mIPSC amplitude after washout [5]: 85±6%
- median amplitude of mPSCs [5]: 30.2±5.2 pA
- median amplitude of spontaneous IPSCs [5]: 82±2 % of control
- evoked synaptic transmission [6]: strongly suppresses synaptic transmission

Substance: monomeric Aβ(1-42): synthetic monomeric Aβ(1-42) peptide (H-1368; Bachem) dissolved in 0.1% NaOH; likely a mixture of aggregation states
- frequency of mPSCs ([5]; 1 μM monomer, TTX): 87±3 % of control
- median amplitude of mPSCs ([5]; 1 μM monomer, TTX): 33.7±3.0 pA
